Measurements taken from patent US11213031B2, “Tetrazolylpropyl derivatives and their use as fungicides” (BAYER AKTIENGESELLSCHAFT, priority 2017, dated 2022).

Experiment: Log P by HPLC on reversed phase columns (EEC directive 79/831 Annex V.A8)
Type: physicochemical
Details: not given
Procedure: Measurement of Log P values was performed according to EEC directive 79/831 Annex V.A8 by HPLC (High Performance Liquid Chromatography) on reversed phase columns with the following methods: • ^[a]Log P value is determined by measurement of LC-UV, in an acidic range, with 0.1% formic acid in water and acetonitrile as eluent (linear gradient from 10% acetonitrile to 95% acetonitrile). • ^[b]Log P value is determined by measurement of LC-UV, in a neutral range, with 0.001 molar ammonium acetate solution in water and acetonitrile as eluent (linear gradient from 10% acetonitrile to 95% acetonitrile). • ^[c]Log P value is determined by measurement of LC-UV, in an acidic range, with 0.1% phosphoric acid and acetonitrile as eluent (linear gradient from 10% acetonitrile to 95% acetonitrile).
If more than one Log P value is available within the same method, all the values are given and separated by “+”.
Calibration was done with straight-chain alkan2-ones (with 3 to 16 carbon atoms) with known Log P values (measurement of Log P values using retention times with linear interpolation between successive alkanones). Lambda-max-values were determined using UV-spectra from 200 nm to 400 nm and the peak values of the chromatographic signals.

| Compound | LogP |
| --- | --- |
| OC(Cc1cccc(Cl)c1)(Cn1cnnn1)C1(Cl)CC1 (centres unmarked) [Ia-47] | 2.82^[a] |
| Cc1ccccc1CC(O)(Cn1cnnn1)C1(C)CC1 (centres unmarked) [Ia-12] | 2.75^[a] |
| CC1(C(O)(Cc2ccccc2Br)Cn2cnnn2)CC1 (centres unmarked) [Ia-09] | 2.92^[a] |
| OC(Cc1cccc(Br)c1F)(Cn1cnnn1)C1(Cl)CC1 (centres unmarked) [Ia-41] | 2.92^[a] |
| CC(c1cc(F)ccc1F)C(O)(Cn1cnnn1)C1(Cl)CC1 (single isomer, unassigned) [Ia-18] | 2.92^[a] |
| COc1ccc(CC(O)(Cn2cnnn2)C2(Cl)CC2)cc1 (centres unmarked) [Ia-58] | 2.40^[a] |
| COc1ccc(CC(O)(Cn2cnnn2)C2(Cl)CC2)c(F)c1F (centres unmarked) [Ia-48] | 2.59^[a] |
| OC(Cc1c(F)cc(F)cc1F)(Cn1cnnn1)C1(Cl)CC1 (centres unmarked) [Ia-35] | 2.64^[a] |
| OC(Cc1ccc(F)c(Cl)c1F)(Cn1cnnn1)C1(Cl)CC1 (centres unmarked) [Ia-38] | 2.94^[a] |
| CC1(C(O)(Cc2ccccc2C(F)(F)F)Cn2cnnn2)CC1 (centres unmarked) [Ia-11] | 2.94^[a] |
| COc1c(F)ccc(CC(O)(Cn2cnnn2)C2(Cl)CC2)c1F (centres unmarked) [Ia-50] | 2.62^[a] |
| OC(Cc1cc(F)cc(F)c1F)(Cn1cnnn1)C1(Cl)CC1 (centres unmarked) [Ia-43] | 2.66^[a] |
| OC(Cc1cccc(F)c1F)(Cn1cnnn1)C1(Cl)CC1 (centres unmarked) [Ia-06] | 2.46^[a] |
| Cc1ccc(CC(O)(Cn2cnnn2)C2(Cl)CC2)c(F)c1F (centres unmarked) [Ia-55] | 2.92^[a] |
| COc1ccc(CC(O)(Cn2cnnn2)C2(F)CC2)cc1 (centres unmarked) [Ia-27] | 2.08^[a] |
| Cc1ccc(CC(O)(Cn2cnnn2)C2(Cl)CC2)cc1 (centres unmarked) [Ia-57] | 2.78^[a] |
| OC(Cc1ccccc1C(F)(F)F)(Cn1cnnn1)C1(Cl)CC1 (centres unmarked) [Ia-07] | 3.02^[a] |
| Cc1ccc(CC(O)(Cn2cnnn2)C2(F)CC2)cc1 (centres unmarked) [Ia-33] | 2.44^[a] |
| OC(Cc1cncc(F)c1)(Cn1cnnn1)C1(Cl)CC1 (centres unmarked) [Ia-59] | 1.53^[a] |
| OC(Cc1ccc(Cl)cc1F)(Cn1cnnn1)C1(Cl)CC1 (centres unmarked) [Ia-40] | 2.90^[a] |
| OC(Cc1cc(F)cc(F)c1)(Cn1cnnn1)C1(Cl)CC1 (centres unmarked) [Ia-31] | 2.63^[a] |
| Cc1cccc(CC(O)(Cn2cnnn2)C2(F)CC2)c1 (centres unmarked) [Ia-28] | 2.42^[a] |

| Compound | LogP |
| --- | --- |
| OC(Cc1cccc(Cl)c1F)(Cn1cnnn1)C1(Cl)CC1 (centres unmarked) [Ia-02] | 2.72^[a] |
| Cc1ccc(CC(O)(Cn2cnnn2)C2(C)CC2)cc1 (centres unmarked) [Ia-30] | 2.73^[a] |
| OC(Cc1c(F)cccc1F)(Cn1cnnn1)C1(Cl)CC1 (centres unmarked) [Ia-13] | 2.52^[a] |
| OC(Cc1ccc(F)c(F)c1)(Cn1cnnn1)C1(Cl)CC1 (centres unmarked) [Ia-56] | 2.64^[a] |
| COc1ccccc1CC(O)(Cn1cnnn1)C1(Cl)CC1 (centres unmarked) [Ia-14] | 2.73^[a] |
| Cc1ccc(F)c(CC(O)(Cn2cnnn2)C2(Cl)CC2)c1F (centres unmarked) [Ia-36] | 2.90^[a] |
| OC(Cc1ccc(F)cc1F)(Cn1cnnn1)C1(Cl)CC1 (centres unmarked) [Ia-53] | 2.57^[a] |
| CC(c1cc(F)ccc1F)C(O)(Cn1cnnn1)C1(Cl)CC1 (single isomer, unassigned) [Ia-16] | 2.66^[a] |
| OC(Cc1cccc(Cl)c1Cl)(Cn1cnnn1)C1(Cl)CC1 (centres unmarked) [Ia-15] | 3.19^[a] |
| OC(Cc1cc(F)ccc1F)(Cn1cnnn1)C1(Cl)CC1 (centres unmarked) [Ia-42] | 2.52^[a] |
| COc1cccc(CC(O)(Cn2cnnn2)C2(F)CC2)c1 (centres unmarked) [Ia-26] | 2.11^[a] |
| CC(c1cccc(F)c1F)C(O)(Cn1cnnn1)C1(Cl)CC1 (centres unmarked) [Ia-25] | 2.96^[a] |
| COc1ccc(F)c(CC(O)(Cn2cnnn2)C2(Cl)CC2)c1F (centres unmarked) [Ia-46] | 2.51^[a] |
| CC1(C(O)(Cc2ccccc2)Cn2cnnn2)CC1 (centres unmarked) [Ia-10] | 2.35^[a] |
| OC(Cc1ccccc1OC(F)(F)F)(Cn1cnnn1)C1(Cl)CC1 (centres unmarked) [Ia-32] | 3.06^[a] |
| COc1cc(F)c(CC(O)(Cn2cnnn2)C2(Cl)CC2)c(F)c1 (centres unmarked) [Ia-49] | 2.69^[a] |
| OC(Cc1cc(Cl)ccc1F)(Cn1cnnn1)C1(Cl)CC1 (centres unmarked) [Ia-29] | 2.86^[a] |
| COC(Cc1ccccc1Cl)(Cn1cnnn1)C1(Cl)CC1 (centres unmarked) [Ia-37] | 3.19^[a] |
| COc1ccc(CC(O)(Cn2cnnn2)C2(C)CC2)cc1 (centres unmarked) [Ia-34] | 2.35^[a] |
| CC1(C(O)(Cc2ccccc2Cl)Cn2cnnn2)CC1 (centres unmarked) [Ia-08] | 2.80^[a] |
| OC(Cc1cccc(Br)c1)(Cn1cnnn1)C1(F)CC1 (centres unmarked) [Ia-23] | 2.59^[a] |

Now from value to compound:

| LogP | Compound |
| --- | --- |
| 2.90^[a] | OC(Cc1c(F)cccc1Cl)(Cn1cnnn1)C1(Cl)CC1 (centres unmarked) [Ia-72] |
| 3.04^[a] | OC(Cc1ccc(F)c(F)c1)(Cn1ncnn1)C1(Cl)CC1 (centres unmarked) [Ib-24] |
| 2.66^[a] | CC=C(c1ccccc1F)C(O)(Cn1cnnn1)C1(Cl)CC1 (racemic) [Ia-en-04] |
| 3.09^[a] | OC(Cc1c(F)cc(F)cc1F)(Cn1ncnn1)C1(Cl)CC1 (centres unmarked) [Ib-07] |
| 3.37^[a] | OC(Cc1ccc(F)c(Cl)c1F)(Cn1ncnn1)C1(Cl)CC1 (centres unmarked) [Ib-12] |
| 3.23^[a] | OC(Cc1ccc(Br)cc1F)(Cn1cnnn1)C1(Cl)CC1 (centres unmarked) [Ia-67] |
| 1.96^[b] | OC(Cc1ccncc1Cl)(Cn1ncnn1)C1(Cl)CC1 (centres unmarked) [Ib-22] |
| 3.00^[a] | COc1c(F)ccc(CC(O)(Cn2ncnn2)C2(Cl)CC2)c1F (centres unmarked) [Ib-14] |
| 2.82^[a] | CC=C(c1cccc(F)c1F)C(O)(Cn1cnnn1)C1(Cl)CC1 (racemic) [Ia-en-06] |
| 2.94^[a] | COc1ccc(CC(O)(Cn2ncnn2)C2(Cl)CC2)c(F)c1F (centres unmarked) [Ib-13] |
| 2.96^[a] | OC(Cc1ccc(F)cc1F)(Cn1ncnn1)C1(Cl)CC1 (centres unmarked) [Ib-17] |
| 3.11^[a] | OC(Cc1ccc(F)c(F)c1F)(Cn1ncnn1)C1(Cl)CC1 (centres unmarked) [Ib-10] |
| 2.46^[a] | C=C(c1ccccc1)C(O)(Cn1cnnn1)C1(Cl)CC1 (centres unmarked) [Ia-en-03] |
| 0.59^[a] | O=C(Cn1cnnn1)C1(F)CC1 [XVIa-03] |
| 2.96^[a] | C=C(c1ccccc1F)C(O)(Cn1ncnn1)C1(Cl)CC1 (centres unmarked) [Ib-en-01] |
| 3.04^[a] | OC(Cc1cccc(C(F)(F)F)c1F)(Cn1cnnn1)C1(Cl)CC1 (centres unmarked) [Ia-71] |
| 1.91^[a] | OC(Cc1cccnc1F)(Cn1ncnn1)C1(Cl)CC1 (centres unmarked) [Ib-25] |
| 2.37^[a] | COc1cccc(CC(O)(Cn2cnnn2)C2(C)CC2)c1 (centres unmarked) [Ia-61] |
| 1.86^[a] | OC(Cc1cncc(Cl)c1)(Cn1cnnn1)C1(Cl)CC1 (centres unmarked) [Ia-74] |
| 3.06^[a] | OC(Cc1cc(F)cc(F)c1F)(Cn1ncnn1)C1(Cl)CC1 (centres unmarked) [Ib-11] |
| 3.09^[a] | OC(Cc1cc(F)c(F)cc1F)(Cn1ncnn1)C1(Cl)CC1 (centres unmarked) [Ib-16] |
| 2.45^[a] | CC1(C(O)(Cc2ccccc2F)Cn2cnnn2)CC1 (centres unmarked) [Ia-68] |
| 1.65^[a] | OC(Cc1ccncc1Cl)(Cn1cnnn1)C1(Cl)CC1 (centres unmarked) [Ia-73] |

| LogP | Compound |
| --- | --- |
| 3.02^[a] | OC(Cc1c(F)ccc(F)c1F)(Cn1ncnn1)C1(Cl)CC1 (centres unmarked) [Ib-19] |
| 2.78^[a] | Cc1cccc(CC(O)(Cn2cnnn2)C2(Cl)CC2)c1 (centres unmarked) [Ia-64] |
| 2.86^[a] | COc1ccc(F)c(CC(O)(Cn2ncnn2)C2(Cl)CC2)c1F (centres unmarked) [Ib-20] |
| 2.84^[a] | CC1(C(O)(Cc2cccc(Br)c2)Cn2cnnn2)CC1 (centres unmarked) [Ia-63] |
| 2.71^[a] | OC(Cc1ccccc1C(F)(F)F)(Cn1cnnn1)C1(F)CC1 (centres unmarked) [Ia-76] |
| 2.92^[a] | OC(Cc1cccc(Br)c1)(Cn1cnnn1)C1(Cl)CC1 (centres unmarked) [Ia-62] |
| 2.73^[a] | Cc1cccc(CC(O)(Cn2cnnn2)C2(C)CC2)c1 (centres unmarked) [Ia-65] |
| 2.54^[a] | OC(Cc1cccc(F)c1)(Cn1cnnn1)C1(Cl)CC1 (centres unmarked) [Ia-69] |
| 3.11^[a] | COc1cc(F)c(CC(O)(Cn2ncnn2)C2(Cl)CC2)c(F)c1 (centres unmarked) [Ib-15] |
| 1.05^[a] | CC1(C(=O)Cn2ncnn2)CC1 [XVIb-02] |
| 2.13^[a] | OC(Cc1cncc(Cl)c1)(Cn1ncnn1)C1(Cl)CC1 (centres unmarked) [Ib-01] |
| 3.23^[a] | COC(Cc1ccccc1Br)(Cn1cnnn1)C1(Cl)CC1 (centres unmarked) [Ia-70] |
| 3.00^[a] | CC=C(c1cccc(Cl)c1F)C(O)(Cn1cnnn1)C1(Cl)CC1 (racemic) [Ia-en-05] |
| 2.42^[a] | COc1cccc(CC(O)(Cn2cnnn2)C2(Cl)CC2)c1 (centres unmarked) [Ia-60] |
| 2.54^[a] | C=C(c1cc(F)ccc1F)C(O)(Cn1cnnn1)C1(Cl)CC1 (centres unmarked) [Ia-en-01] |
| 2.98^[a] | OC(Cc1c(F)cc(Cl)cc1F)(Cn1cnnn1)C1(Cl)CC1 (centres unmarked) [Ia-75] |
| 2.82^[a] | C=C(c1cccc(Cl)c1F)C(O)(Cn1cnnn1)C1(Cl)CC1 (centres unmarked) [Ia-en-10] |
| 2.82^[a] | OC(Cc1cccc(F)c1F)(Cn1ncnn1)C1(Cl)CC1 (centres unmarked) [Ib-03] |
| 2.57^[a] | C=C(c1cccc(F)c1F)C(O)(Cn1cnnn1)C1(Cl)CC1 (centres unmarked) [Ia-en-08] |
| 1.76^[a] | OC(Cc1cncc(F)c1)(Cn1ncnn1)C1(Cl)CC1 (centres unmarked) [Ib-23] |
| 3.37^[a] | OC(Cc1ccc(Cl)cc1F)(Cn1ncnn1)C1(Cl)CC1 (centres unmarked) [Ib-08] |
| 2.71^[a] | C=C(c1ccccc1Cl)C(O)(Cn1cnnn1)C1(Cl)CC1 (centres unmarked) [Ia-en-09] |
| 3.33^[a] | Cc1ccc(CC(O)(Cn2ncnn2)C2(Cl)CC2)c(F)c1F (centres unmarked) [Ib-21] |

Same assay, conditions: method [a]: LC-UV, acidic range, 0.1% formic acid in water and acetonitrile as eluent

| Compound | chromatographic logP |
| --- | --- |
| OC(Cc1ccccc1Cl)(Cn1ncnn1)C1(Cl)CC1 (centres unmarked) [Ib-04, 2-(1-chlorocyclopropyl)-1-(2-chlorophenyl)-3-(tetrazol-2-yl)propan-2-ol] | 3.2 |
| O=C(Cn1ncnn1)C1(Cl)CC1 [XVIb-01, 1-(1-chlorocyclopropyl)-2-(tetrazol-2-yl)ethanone] | 1.3 |
| O=C(Cn1cnnn1)C1(Cl)CC1 [XVIa-01, 1-(1-chlorocyclopropyl)-2-(tetrazol-1-yl)ethanone] | 0.99 |
